Test results taken from US10363239B2, “Method for inhibiting growth of cancer cells” (Pain Therapeutics, Inc., priority 2013, dated 2019).
Like-named read-outs stand apart in the source and are kept apart here.

How the values were obtained:
mu opiate receptor (MOR) = assay: MOR agonist activity using [35S]GTPγS binding assay in striatal membranes; format: biochemical; details: for MOR agonist activity ([35S]GTPγS binding), FLNA-Binding Compound as Agonist 1 μM + BFNA: 1 μM compound + 1 μM β-funaltrexamine
Outline: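 Striatal membranes (200 μg) were preincubated 5 min at 30 °C in HEPES pH 7.5 with 100 mM NaCl, 1 mM MgCl2 and 0.5 nM [35S]GTPγS, then 5 min more with 0.1–10 μM compound. Gαo was immunoprecipitated and bound radioactivity counted by scintillation.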

[1] = molecular target: FLNA pentapeptide of SEQ ID NO: 1 (Bn-VAKGL) (Homo sapiens, UniProt P21333); assay: FITC-NLX-based FLNA screening assay (inhibition of FITC-naloxone binding to Bn-VAKGL on streptavidin plates); details: 10 nM FITC-NLX
[2] = 0.1 μM compound relative to DAMGO
[3] = 1 μM compound + BFNA relative to DAMGO + BFNA
[4] = 1 μM compound relative to DAMGO
[5] = read-out: Percent Binding Inhibition, FLNA-binding compound 0.01 μM
[6] = read-out: Percent Binding Inhibition, FLNA-binding compound 0.1 μM
[7] = read-out: Percent Binding Inhibition, FLNA-binding compound 1 μM
[8] = Series C-1, 0.1 μM compound, relative to DAMGO
[9] = Series C-1, 0.1 μM compound, [35S]GTPγS binding to Gαo, striatal membranes
[10] = Series C-1, 1 μM compound + 1 μM β-FNA
[11] = Series C-1, 1 μM compound + β-FNA, relative to DAMGO + BFNA
[12] = Series C-1, 1 μM compound, relative to DAMGO
[13] = Series C-1, 1 μM compound, [35S]GTPγS binding to Gαo, striatal membranes
[14] = FLNA-binding compound 0.1 μM, read-out: Percent Binding Inhibition
[15] = FLNA-binding compound 1 μM, read-out: Percent Binding Inhibition
[16] = Series C-2, 0.1 μM compound, relative to DAMGO
[17] = Series C-2, 0.1 μM compound, [35S]GTPγS binding to Gαo, striatal membranes
[18] = Series C-2, 1 μM compound + 1 μM β-FNA
[19] = Series C-2, 1 μM compound + β-FNA, relative to DAMGO + BFNA
[20] = Series C-2, 1 μM compound, relative to DAMGO
[21] = Series C-2, 1 μM compound, [35S]GTPγS binding to Gαo, striatal membranes
[22] = FLNA-binding compound 0.01 μM, read-out: Percent Binding Inhibition

CC1CN(CC(O)COc2ccc(Br)c(F)c2)CC(C)O1 (stereo not drawn) [Compound A0041]
MOR agonist activity ([35S]GTPγS binding), FLNA-Binding Compound as Agonist 0.1 μM (mu opiate receptor (MOR); 0.1 μM compound): 212.7% | % DAMGO (0.1 μM) (mu opiate receptor (MOR); [2]): 108.4% | MOR agonist activity ([35S]GTPγS binding), FLNA-Binding Compound as Agonist 1 μM (mu opiate receptor (MOR); 1 μM compound): 283.6% | MOR agonist activity ([35S]GTPγS binding), FLNA-Binding Compound as Agonist 1 μM + BFNA (mu opiate receptor (MOR)): 50.6% | % DAMGO + BFNA (mu opiate receptor (MOR); [3]): 68.5% | % DAMGO (1 μM) (mu opiate receptor (MOR); [4]): 102.8% | inhibition at 0.01 µM [1, 5]: 45.8% | inhibition at 0.1 µM [1, 6]: 51.7% | inhibition at 1 µM [1, 7]: 56.9%

COc1ccc(S(=O)(=O)N2CCC3(CC2)OCCN3S(=O)(=O)c2ccc(C(C)=O)cc2)cc1 [Compound C0048]
% DAMGO (0.1 μM) (mu opiate receptor (MOR); [8]): 144.2% | Concentration of FLNA-Binding Compound as Agonist 0.1 μM (mu opiate receptor (MOR); [9]): 209.1% | Concentration of FLNA-Binding Compound as Agonist 1 μM + BFNA (mu opiate receptor (MOR); [10]): 89.9% | % DAMGO + BFNA (mu opiate receptor (MOR); [11]): 204.3% | % DAMGO (1 μM) (mu opiate receptor (MOR); [12]): 105.3% | Concentration of FLNA-Binding Compound as Agonist 1 μM (mu opiate receptor (MOR); [13]): 245.3% | inhibition at 0.01 µM [1, 5]: 28.5% | inhibition at 0.1 µM [1, 6]: 38.9% | inhibition at 1 µM [1, 7]: 45.9%

CC(=O)Nc1ccc(S(=O)(=O)N2CCC3(CC2)OCCN3S(=O)(=O)c2ccc(NC(C)=O)cc2)cc1 [Compound C0013]
% DAMGO (0.1 μM) (mu opiate receptor (MOR); [8]): 91.0% | Concentration of FLNA-Binding Compound as Agonist 0.1 μM (mu opiate receptor (MOR); [9]): 156.6% | Concentration of FLNA-Binding Compound as Agonist 1 μM + BFNA (mu opiate receptor (MOR); [10]): 39.6% | % DAMGO + BFNA (mu opiate receptor (MOR); [11]): 61.8% | % DAMGO (1 μM) (mu opiate receptor (MOR); [12]): 108.9% | Concentration of FLNA-Binding Compound as Agonist 1 μM (mu opiate receptor (MOR); [13]): 301.2% | inhibition at 0.1 µM [1, 14]: 42.4% | inhibition at 1 µM [1, 15]: 49.1% | inhibition at 0.01 µM [1, 5]: 39.6%

COc1c2c(cc3c1C(CC(=O)Cc1ccc(Br)cc1)[N+](C)(C)CC3)OCO2 (stereo not drawn) [Compound B0011]
% DAMGO (0.1 μM) (mu opiate receptor (MOR); Series B, 0.1 μM compound, relative to DAMGO): 95.7% | MOR agonist activity, percent [35S]GTPγS binding at the stated compound concentration (mu opiate receptor (MOR); Series B, 0.1 μM compound, [35S]GTPγS binding to Gαo, striatal membranes): 158.6% | MOR agonist activity, percent [35S]GTPγS binding at the stated compound concentration (mu opiate receptor (MOR); Series B, 1 μM compound + 1 μM β-FNA): 78.0% | % DAMGO + BFNA (mu opiate receptor (MOR); Series B, 1 μM compound + β-FNA, relative to DAMGO + BFNA): 120.0% | % DAMGO (1 μM) (mu opiate receptor (MOR); Series B, 1 μM compound, relative to DAMGO): 78.7% | MOR agonist activity, percent [35S]GTPγS binding at the stated compound concentration (mu opiate receptor (MOR); Series B, 1 μM compound, [35S]GTPγS binding to Gαo, striatal membranes): 212.6% | inhibition at 0.01 µM [1, 5]: 40.9% | inhibition at 0.1 µM [1, 6]: 50.3% | inhibition at 1 µM [1, 7]: 55.8%

O=[N+]([O-])c1ccc(S(=O)(=O)N2CCC3(CC2)NCCO3)cc1 [Compound C0040]
% DAMGO (0.1 μM) (mu opiate receptor (MOR); [16]): 93.1% | MOR agonist activity, percent [35S]GTPγS binding at the stated compound concentration (mu opiate receptor (MOR); [17]): 145.8% | MOR agonist activity, percent [35S]GTPγS binding at the stated compound concentration (mu opiate receptor (MOR); [18]): 90.4% | % DAMGO + BFNA (mu opiate receptor (MOR); [19]): 277.3% | % DAMGO (1 μM) (mu opiate receptor (MOR); [20]): 133.2% | MOR agonist activity, percent [35S]GTPγS binding at the stated compound concentration (mu opiate receptor (MOR); [21]): 308.3% | inhibition at 0.01 µM [1, 22]: 38.4% | inhibition at 0.1 µM [1, 14]: 46.3% | inhibition at 1 µM [1, 15]: 55.9%

CC1CCC(C(C)C)C(OCC(O)CN2CCSC2)C1 (stereo not drawn) [Compound A0002]
MOR agonist activity ([35S]GTPγS binding), FLNA-Binding Compound as Agonist 0.1 μM (mu opiate receptor (MOR); 0.1 μM compound): 155.6% | % DAMGO (0.1 μM) (mu opiate receptor (MOR); [2]): 104.1% | MOR agonist activity ([35S]GTPγS binding), FLNA-Binding Compound as Agonist 1 μM (mu opiate receptor (MOR); 1 μM compound): 199.4% | MOR agonist activity ([35S]GTPγS binding), FLNA-Binding Compound as Agonist 1 μM + BFNA (mu opiate receptor (MOR)): 6.5% | % DAMGO + BFNA (mu opiate receptor (MOR); [3]): 24.5% | % DAMGO (1 μM) (mu opiate receptor (MOR); [4]): 86.6% | inhibition at 0.01 µM [1, 22]: 38.7% | inhibition at 0.1 µM [1, 14]: 43.7% | inhibition at 1 µM [1, 15]: 49.9%

COc1ccccc1S(=O)(=O)N1CCC2(CC1)OCCN2S(=O)(=O)c1ccccc1OC [Compound C0003]
% DAMGO (0.1 μM) (mu opiate receptor (MOR); [8]): 91.9% | Concentration of FLNA-Binding Compound as Agonist 0.1 μM (mu opiate receptor (MOR); [9]): 162.3% | Concentration of FLNA-Binding Compound as Agonist 1 μM + BFNA (mu opiate receptor (MOR); [10]): 107.7% | % DAMGO + BFNA (mu opiate receptor (MOR); [11]): 163.9% | % DAMGO (1 μM) (mu opiate receptor (MOR); [12]): 83.3% | Concentration of FLNA-Binding Compound as Agonist 1 μM (mu opiate receptor (MOR); [13]): 215.9% | inhibition at 0.01 µM [1, 5]: 38.3% | inhibition at 0.1 µM [1, 6]: 45.3% | inhibition at 1 µM [1, 7]: 48.8%

O=C1CN(Cc2ccccc2)C2(CCN(CC3CC3)CC2)N1 [Compound C0125M]
% DAMGO (0.1 μM) (mu opiate receptor (MOR); [16]): 89.1% | MOR agonist activity, percent [35S]GTPγS binding at the stated compound concentration (mu opiate receptor (MOR); [17]): 168.6% | MOR agonist activity, percent [35S]GTPγS binding at the stated compound concentration (mu opiate receptor (MOR); [18]): 159.7% | % DAMGO + BFNA (mu opiate receptor (MOR); [19]): 329.3% | % DAMGO (1 μM) (mu opiate receptor (MOR); [20]): 78.6% | MOR agonist activity, percent [35S]GTPγS binding at the stated compound concentration (mu opiate receptor (MOR); [21]): 195.2% | inhibition at 0.01 µM [1, 5]: 54.2% | inhibition at 0.1 µM [1, 6]: 59.7% | inhibition at 1 µM [1, 7]: 63.3%
